Laboratory results from the supplement of paper PMC11061612.

Legend:
[1] = compound: CCN(CCO)CCCOc1ccc2c(Nc3cc(CC(=O)Nc4cccc(F)c4)[nH]n3)ncnc2c1 [AZD2811]; details: max 1 µM
Summary of the method: (§1)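 Cancer cell lines were dosed for 72 hours (final DMSO typically 0.2%) after 24 hours at 37°C and 5% CO2 in 1536-well plates containing 7.5 μl DMEM/F12 or RPMI with 10% FBS. Viability came from CellTiter-Glo 2.0 luminescence, scaled between blank-well and DMSO-well means, and dose responses were fitted to a two-parameter logistic curve with a non-linear mixed effects model. The single-agent IC50 was obtained from this fit.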

[2] = compound: CCc1c2c(nc3ccc(O)cc13)-c1cc3c(c(=O)n1C2)COC(=O)[C@]3(O)CC [SN-38]; details: max 0.3 µM
Summary of the method: as §1

[3] = compound: Cc1c2c(nn1C)CSCc1cc(n(C)n1)CSc1cc(c3ccccc3c1)OCCCc1c(C(=O)O)n(C)c3c-2c(Cl)ccc13 [AZD5991]; details: max 1 µM
Summary of the method: as §1

[4] = compound: COc1cc2ncnc(Nc3ccc(F)c(Cl)c3)c2cc1OCCCN1CCOCC1 [Gefitinib]; details: max 10 µM
Summary of the method: as §1

[5] = compound: CS(=O)(=O)CCNCc1ccc(-c2ccc3ncnc(Nc4ccc(OCc5cccc(F)c5)c(Cl)c4)c3c2)o1 [Lapatinib]; details: max 10 µM
Summary of the method: as §1

[6] = compound: COc1nnc2ccc(N3CCC(c4ccc(OCCN5CCN(C)C(=O)[C@H]5C)cc4)CC3)nn12 [AZD5153]; details: max 1 µM
Summary of the method: as §1

[7] = compound: C1CC(C1)(C(=O)[O-])C(=O)[O-].N.N.[Pt+2] [Carboplatin]; details: max 10 µM
Summary of the method: as §1

[8] = compound: CN(CC[C@H](CSC1=CC=CC=C1)NC2=C(C=C(C=C2)S(=O)(=O)NC(=O)C3=CC=C(C=C3)N4CCC(CC4)[C@H](C5=CC=CC=C5C6=CC=C(C=C6)Cl)O)S(=O)(=O)C(F)(F)F)CCO [AZD4320]; details: max 1 µM
Summary of the method: as §1

[9] = compound: O=C(Nc1ccc2[nH]nc(-c3ccncc3)c2c1)[C@@H]1CCN(CC(=O)N2CCN(c3ccc(-c4ncccn4)cc3)CC2)C1; details: max 5 µM
Summary of the method: as §1

[10] = compound: COc1cc([C@@H]2c3cc4c(cc3[C@@H](O[C@@H]3O[C@@H]5CO[C@@H](C)O[C@H]5[C@H](O)[C@H]3O)[C@H]3COC(=O)[C@H]23)OCO4)cc(OC)c1O [Etoposide]; details: max 10 µM
Summary of the method: as §1

[11] = compound: O=c1[nH]cc(F)c(=O)[nH]1 [5-Fluorouracil]; details: max 20 µM
Summary of the method: as §1

[12] = compound: COc1cccc(OCCCN)c1-c1cc(Nc2cnc(C#N)cn2)n[nH]1 [Prexasertib]; details: max 1 µM
Summary of the method: as §1

[13] = compound: C[C@@H](Oc1cc(-c2cnn(C3CCNCC3)c2)cnc1N)c1c(Cl)ccc(F)c1Cl [Crizotinib]; details: max 10 µM
Summary of the method: as §1

[14] = compound: CC(=O)O[C@H]1C(=O)[C@@]2(C)[C@H]([C@H](OC(=O)c3ccccc3)[C@]3(O)C[C@H](OC(=O)[C@H](O)[C@@H](NC(=O)c4ccccc4)c4ccccc4)C(C)=C1C3(C)C)[C@]1(OC(C)=O)CO[C@@H]1C[C@@H]2O [Paclitaxel]; details: max 3 µM
Summary of the method: as §1

[15] = compound: Nc1ccn([C@@H]2O[C@H](CO)[C@@H](O)C2(F)F)c(=O)n1 [Gemcitabine]; details: max 0.3 µM
Summary of the method: as §1

[16] = compound: C1CN(CCC1(C(=O)N[C@@H](CCO)C2=CC=C(C=C2)Cl)N)C3=NC=NC4=C3C=CN4 [AZD5363]; details: max 10 µM
Summary of the method: as §1

[17] = compound: Cc1cc2ncnn2cc1Nc1ncc2c(n1)n(C1CCOCC1)c(=O)n2C [AZD7648]; details: max 10 µM
Summary of the method: as §1

[18] = compound: COc1cc(Nc2ncc3c(n2)-c2ccc(Cl)cc2C(c2c(F)cccc2OC)=NC3)ccc1C(=O)O [Alisertib]; details: max 10 µM
Summary of the method: as §1

[19] = compound: Cn1cnc2c(F)c(Nc3ccc(Br)cc3Cl)c(C(=O)NOCCO)cc21 [Selumetinib]; details: max 10 µM
Summary of the method: as §1

[20] = compound: CC(C)n1c(=O)n(C)c2cnc3cc(F)c(-c4ccc(OCCCN5CCCCC5)nc4)cc3c21 [AZD1390]; details: max 0.3 µM
Summary of the method: as §1

[21] = compound: C[C@@H](c1ccc2nccn2c1)n1nnc2ncc(-c3cnn(C)c3)nc21 [Savolitinib]; details: max 1 µM
Summary of the method: as §1

[22] = compound: C=CCn1c(=O)c2cnc(Nc3ccc(N4CCN(C)CC4)cc3)nc2n1-c1cccc(C(C)(C)O)n1 [AZD1775]; details: max 3 µM
Summary of the method: as §1

[23] = compound: COc1cccc2c1C(=O)c1c(O)c3c(c(O)c1C2=O)C[C@@](O)(C(=O)CO)C[C@@H]3O[C@H]1C[C@H](N)[C@H](O)[C@H](C)O1 [Doxorubicin]; details: max 1 µM
Summary of the method: as §1

[24] = compound: CN(C)CCCOc1ccc(-c2ccc3ncc4c(c3c2)n(C2CCOCC2)c(=O)n4C)cn1 [AZD0156]; details: max 3 µM
Summary of the method: as §1

[25] = compound: C[C@@H](Nc1cc(F)cc(F)c1)c1cc(C(=O)N(C)C)cc2c(=O)cc(N3CCOCC3)oc12 [AZD8186]; details: max 10 µM
Summary of the method: as §1

[26] = compound: CC(=O)Nc1cccc(-n2c(=O)n(C3CC3)c(=O)c3c(Nc4ccc(I)cc4F)n(C)c(=O)c(C)c32)c1 [Trametinib]; details: max 1 µM
Summary of the method: as §1

[27] = compound: CC1=CN2[C@@H](C1)C=NC3=CC(=C(C=C3C2=O)OC)OCCCCCOC4=C(C=C5C(=C4)N=C[C@@H]6CC(=CN6C5=O)C)OC [SG3199]; details: max 0.001 µM
Summary of the method: as §1

[28] = compound: CC(=O)c1c(C)c2cnc(Nc3ccc(N4CCNCC4)cn3)nc2n(C2CCCC2)c1=O [Palbociclib]; details: max 10 µM
Summary of the method: as §1

[29] = compound: CC1(C)CCC(CN2CCN(c3ccc(C(=O)NS(=O)(=O)c4ccc(NCC5CCOCC5)c([N+](=O)[O-])c4)c(Oc4cnc5[nH]ccc5c4)c3)CC2)=C(c2ccc(Cl)cc2)C1 [Venetoclax]; details: max 1 µM
Summary of the method: as §1

[30] = compound: CC1=C(C(=CC=C1)Cl)NC(=O)C2=CN=C(S2)NC3=CC(=NC(=N3)C)N4CCN(CC4)CCO [Dasatinib]; details: max 2 µM
Summary of the method: as §1

[31] = compound: O=C(c1cc(Cc2n[nH]c(=O)c3ccccc23)ccc1F)N1CCN(C(=O)C2CC2)CC1 [Olaparib]; details: max 10 µM
Summary of the method: as §1

[32] = compound: Cc1nc(-c2cn3c(n2)-c2ccc(-c4cnn(C(C)(C)C(N)=O)c4)cc2OCC3)n(C(C)C)n1 [Taselisib]; details: max 10 µM
Summary of the method: as §1

[33] = compound: N#Cc1cnc(Nc2cc(NC[C@H]3CNCCO3)c(C(F)(F)F)cn2)cn1 [SRA737]; details: max 10 µM
Summary of the method: as §1

[34] = compound: C[C@@H]1COCCN1C2=NC(=NC(=C2)C3(CC3)[S@](=N)(=O)C)C4=C5C=CNC5=NC=C4 [AZD6738]; details: max 10 µM
Summary of the method: as §1

[35] = compound: NC1(c2ccc(-c3nc4ccn5c(=O)[nH]nc5c4cc3-c3ccccc3)cc2)CCC1 [MK-2206]; details: max 10 µM
Summary of the method: as §1

| Cell Line | IC50, cell viability 72 h [1] | IC50, cell viability 72 h [2] | IC50, cell viability 72 h [3] | IC50, cell viability 72 h [4] | IC50, cell viability 72 h [5] | IC50, cell viability 72 h [6] | IC50, cell viability 72 h [7] | IC50, cell viability 72 h [8] | IC50, cell viability 72 h [9] | IC50, cell viability 72 h [10] | IC50, cell viability 72 h [11] | IC50, cell viability 72 h [12] | IC50, cell viability 72 h [13] | IC50, cell viability 72 h [14] | IC50, cell viability 72 h [15] | IC50, cell viability 72 h [16] | IC50, cell viability 72 h [17] | IC50, cell viability 72 h [18] | IC50, cell viability 72 h [19] | IC50, cell viability 72 h [20] | IC50, cell viability 72 h [21] | IC50, cell viability 72 h [22] | IC50, cell viability 72 h [23] | IC50, cell viability 72 h [24] | IC50, cell viability 72 h [25] | IC50, cell viability 72 h [26] | IC50, cell viability 72 h [27] | IC50, cell viability 72 h [28] | IC50, cell viability 72 h [29] | IC50, cell viability 72 h [30] | IC50, cell viability 72 h [31] | IC50, cell viability 72 h [32] | IC50, cell viability 72 h [33] | IC50, cell viability 72 h [34] | IC50, cell viability 72 h [35] |
| --- | --- | --- | --- | --- | --- | --- | --- | --- | --- | --- | --- | --- | --- | --- | --- | --- | --- | --- | --- | --- | --- | --- | --- | --- | --- | --- | --- | --- | --- | --- | --- | --- | --- | --- | --- |
| LCLC-103H (Non-Small Cell Lung Carcinoma) | > 1 µM | > 0.3 µM | > 1 µM | > 10 µM | > 10 µM | > 1 µM | > 10 µM | > 1 µM | > 5 µM | > 10 µM | > 20 µM | 0.0881 µM | > 10 µM | 0.0178 µM | > 0.3 µM | > 10 µM | > 10 µM | > 10 µM | > 10 µM | > 0.3 µM | > 1 µM | 2.19 µM | > 1 µM | > 3 µM | > 10 µM | > 1 µM | > 0.001 µM | > 10 µM | > 1 µM | > 2 µM | > 10 µM | > 10 µM | > 10 µM | > 10 µM | > 10 µM |
| LS-1034 (Colorectal Carcinoma) | > 1 µM | > 0.3 µM | > 1 µM | > 10 µM | > 10 µM | 0.85 µM | > 10 µM | > 1 µM | > 5 µM | > 10 µM | > 20 µM | 0.238 µM | > 10 µM | 0.59 µM | 0.12 µM | > 10 µM | > 10 µM | > 10 µM | 2.42 µM | > 0.3 µM | > 1 µM | 0.918 µM | > 1 µM | > 3 µM | > 10 µM | 0.052 µM | > 0.001 µM | > 10 µM | > 1 µM | > 2 µM | > 10 µM | > 10 µM | > 10 µM | 6.05 µM | > 10 µM |
| MDA-MB-415 (Breast Carcinoma) | > 1 µM | > 0.3 µM | > 1 µM | > 10 µM | > 10 µM | > 1 µM | > 10 µM | 0.847 µM | > 5 µM | > 10 µM | > 20 µM | > 1 µM | > 10 µM | 0.0298 µM | > 0.3 µM | 0.727 µM | > 10 µM | > 10 µM | > 10 µM | > 0.3 µM | > 1 µM | > 3 µM | > 1 µM | > 3 µM | 0.216 µM | > 1 µM | > 0.001 µM | > 10 µM | > 1 µM | > 2 µM | > 10 µM | 6.01 µM | > 10 µM | > 10 µM | 1.25 µM |
| MONO-MAC-6 (Acute Myeloid Leukemia) | 0.303 µM | 0.00764 µM | 0.0678 µM | > 10 µM | > 10 µM | 0.0306 µM | > 10 µM | > 1 µM | 2.1 µM | 2.85 µM | 1.63 µM | 0.052 µM | 2.98 µM | 0.00721 µM | 0.00443 µM | 5.27 µM | > 10 µM | 2.09 µM | > 10 µM | > 0.3 µM | > 1 µM | 0.535 µM | 0.127 µM | > 3 µM | 6.44 µM | 0.446 µM | > 0.001 µM | > 10 µM | > 1 µM | > 2 µM | > 10 µM | 4.75 µM | 3.35 µM | 3.4 µM | 4.14 µM |
| MS-1 (Small Cell Lung Carcinoma) | > 1 µM | 0.0577 µM | > 1 µM | > 10 µM | > 10 µM | 0.12 µM | > 10 µM | > 1 µM | > 5 µM | 7.2 µM | > 20 µM | 0.022 µM | 6.28 µM | 0.104 µM | 0.197 µM | > 10 µM | > 10 µM | > 10 µM | > 10 µM | > 0.3 µM | > 1 µM | 0.531 µM | 0.244 µM | > 3 µM | > 10 µM | > 1 µM | > 0.001 µM | > 10 µM | > 1 µM | > 2 µM | > 10 µM | > 10 µM | 9.42 µM | 4.38 µM | > 10 µM |
